In patent US8329739B2, “Phenylimidazole compounds” (Otsuka Pharmaceutical Factory, Inc., priority 2009, dated 2012):

Columns and labels:
LPL (lipoprotein lipase) = molecular target: T1, LPL (lipoprotein lipase) (Mus musculus, UniProt P11152); assay: Confirmation test of LPL activation effect in mouse skeletal muscle cells (C2C12 cells); type: cell-based; details: 8 hours exposure, vs control group
T1 construct: endogenous in cells; host or cells: C2C12 cells, differentiated
T1 sequence (P11152 28-474): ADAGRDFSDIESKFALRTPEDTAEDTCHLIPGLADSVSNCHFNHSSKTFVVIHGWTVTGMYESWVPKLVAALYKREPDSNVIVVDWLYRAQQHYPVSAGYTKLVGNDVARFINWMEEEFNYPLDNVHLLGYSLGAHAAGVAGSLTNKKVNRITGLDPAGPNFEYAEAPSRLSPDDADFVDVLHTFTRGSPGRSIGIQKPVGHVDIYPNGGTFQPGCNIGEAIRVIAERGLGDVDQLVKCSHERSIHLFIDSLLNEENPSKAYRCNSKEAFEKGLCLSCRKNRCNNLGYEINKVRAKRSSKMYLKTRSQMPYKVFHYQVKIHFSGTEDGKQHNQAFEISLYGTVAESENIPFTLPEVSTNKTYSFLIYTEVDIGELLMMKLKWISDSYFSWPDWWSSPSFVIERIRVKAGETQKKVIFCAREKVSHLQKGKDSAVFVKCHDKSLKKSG
Procedure: Human skeletal muscle cells (human skeletal muscle myoblasts) or mouse skeletal muscle cells (C2C12 cells) that were seeded onto plates, cultured, and differentiated were exposed to a 0.3% dimethyl sulfoxide-containing culture medium in which the compound of the present invention was dissolved (concentration: 10 μM or 30 μM). The medium was removed 8 hours after exposure, 10 mM of Tris-HCl buffer (150 mM NaCl, 10 μ/mL; containing heparin sodium) was added to the cells, and the cells were incubated at 37° C. in the presence of 5% CO2 for 10 minutes. LPL activity in the supernatant was measured using an LPL activity assay kit (made by Roar Biomedical Inc.). LPL activity was evaluated based on the increase in fluorescence intensity 10 to 70 minutes after mixing the supernatant with the LPL substrate. The mean value of the increase in fluorescence intensity of the cells exposed to a 0.3% dimethyl sulfoxide-containing culture medium […] was used as mean value of the control group. Note that the compounds of Examples 18, 19, 32, 45 and 57 were tested using human skeletal muscle cells, and other compounds were tested using mouse skeletal muscle cells. The rate of increase (%) was calculated from the measured values of LPL activity in the control group and the experimental group, according to the following formula. Rate of increase in LPL activity (%)=[(mean value of the experimental group)−(mean value of the control group)]/(mean value of the control group)×100

Row | Structure (SMILES) | Rate of increase in LPL activity (LPL (lipoprotein lipase); amount of addition 10 μM) [%] | Rate of increase in LPL activity (LPL (lipoprotein lipase); amount of addition 30 μM) [%] | melting point [°C]
1 | COc1cc(-c2c[nH]c(-c3ccc(C(C)(C)C)cc3)n2)ccc1OCc1ccccc1 [Example 28] | 30 | 53 | 138 to 141
2 | COc1cc(OCc2ccccc2)ccc1-c1c[nH]c(-c2ccc(Cl)c(Cl)c2)n1.Cl [Example 124] | 93 | 113 | 242 to 245
3 | COc1cccc(-c2nc(-c3ccc(OCc4ccc(C#N)cc4)cc3OC)c[nH]2)c1 [Example 100] | 12 | 43 | 139 to 142
4 | COc1cc(OCc2ccc(Br)cc2F)ccc1-c1c[nH]c(-c2ccc(Cl)c(Cl)c2)n1 [Example 102] | 44 | 88 | 260 to 262
5 | COc1cc(OCc2ccc(Cl)cc2F)ccc1-c1c[nH]c(-c2ccc(F)cc2)n1.Cl [Example 133] | 63 | 236 | 259 to 260
6 | COc1cc(OCc2ccccc2)ccc1-c1c[nH]c(-c2ccc(C)cc2)n1 [Example 109] | 12 | 77 | 219 to 222
7 | COc1cc(OCc2ccccc2)ccc1-c1c[nH]c(-c2ccccc2)n1.Cl [Example 7] | 69 | 197 | 229 to 230
8 | COc1cc(-c2c[nH]c(-c3ccccc3)n2)ccc1OCc1ccc(Br)cc1F.Cl [Example 3] | 43 | 62 | 224 to 226
9 | COc1cc(-c2c[nH]c(-c3ccc(C)cc3)n2)ccc1OCc1ccccc1.Cl [Example 5] | 14 | 42 | 244 to 245
10 | COc1cc(OCc2ccccc2)ccc1-c1c[nH]c(-c2cccc(F)c2)n1.Cl [Example 54] | 18 | 87 | 231 to 235
11 | COc1cc(-c2c[nH]c(-c3ccc(F)cc3)n2)ccc1OCc1ccc(C#N)cc1 [Example 56] | 38 | 62 | 224 to 226
12 | COc1cc(OCc2ccccc2)ccc1-c1c[nH]c(-c2ccsc2)n1 [Example 24] | 59 | 77 | 188 to 192
13 | COc1cc(-c2c[nH]c(-c3ccsc3)n2)ccc1OCc1ccc(Cl)cc1 [Example 71] | 42 | 114 | 197 to 201
14 | COc1cc(OCc2ccc(Cl)cc2)ccc1-c1c[nH]c(-c2ccc(F)cc2)n1 [Example 43] | 64 | 157 | 174 to 176
15 | COc1cc(-c2c[nH]c(-c3ccsc3)n2)ccc1OCc1ccccc1C#N.Cl [Example 73] | 55 | 108 | 236 to 237
16 | COc1cccc(-c2nc(-c3ccc(OCc4ccccc4)cc3OC)c[nH]2)c1.Cl [Example 130] | 9 | 170 | 236 to 238
17 | COc1cc(OCc2ccc(Cl)cc2)ccc1-c1c[nH]c(-c2cc(Cl)cc(Cl)c2)n1.Cl [Example 118] | 80 | 102 | 233 to 241
18 | COc1cc(-c2c[nH]c(-c3ccc(Cl)cc3)n2)ccc1OCc1ccc(C#N)cc1 [Example 77] | 54 | 133 | 231 to 232
19 | COc1cc(-c2c[nH]c(-c3cc(Cl)cc(Cl)c3)n2)ccc1OCc1ccccc1 [Example 15] | 79 | 97 | 250 to 251
20 | COc1cc(-c2c[nH]c(-c3ccccc3)n2)ccc1OCc1ccc(Cl)cc1 [Example 2] | 13 | 38 | 87 to 89
